# From patent publication US10695334B2, “Heteroaromatic carboxamide derivatives as plasma kallikrein inhibitors” (Boehringer Ingelheim International GmbH, priority 2018, dated 2020)
# Target: Human PKK (Homo sapiens (Human), UniProt P03952)
# Assay: Inhibition of PKK, endpoint assay (human PKK)
# Type: biochemical
# Conditions: substrate H-Pro-Phe-Arg-AMC, 1 h room temperature
# Protocol: Subsequently, PPACK II (Calbiochem) was added as a stop solution to achieve a final concentration of 1 μM and fluorescence was measured using an Envision Reader (PerkinElmer) with the wavelength excitation setting of 355 nm and the wavelength emission setting of 460 nm.
# Human PKK, sequence (P03952 391-638): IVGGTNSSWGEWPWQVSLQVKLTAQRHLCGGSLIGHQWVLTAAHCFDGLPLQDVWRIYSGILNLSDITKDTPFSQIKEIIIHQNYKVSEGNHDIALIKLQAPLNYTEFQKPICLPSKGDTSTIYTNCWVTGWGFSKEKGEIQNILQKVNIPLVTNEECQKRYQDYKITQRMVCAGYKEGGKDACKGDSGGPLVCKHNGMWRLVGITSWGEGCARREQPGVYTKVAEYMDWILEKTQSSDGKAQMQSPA
# Human PKK, sequence (P03952 20-390 partner): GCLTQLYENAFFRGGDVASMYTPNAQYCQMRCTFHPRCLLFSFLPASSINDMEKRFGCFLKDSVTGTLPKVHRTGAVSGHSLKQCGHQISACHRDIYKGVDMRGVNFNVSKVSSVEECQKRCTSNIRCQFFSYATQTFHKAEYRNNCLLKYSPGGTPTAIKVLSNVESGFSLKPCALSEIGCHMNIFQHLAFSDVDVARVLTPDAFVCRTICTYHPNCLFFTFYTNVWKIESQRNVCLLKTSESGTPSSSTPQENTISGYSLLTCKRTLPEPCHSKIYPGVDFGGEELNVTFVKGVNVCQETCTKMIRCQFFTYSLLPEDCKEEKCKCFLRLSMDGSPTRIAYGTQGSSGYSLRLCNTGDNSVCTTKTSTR
row,Compound,IC50
1,"Cc1nc(N2CC3CC3C2)ccc1Cn1cnc(C(=O)N[C@@H]2CCc3c2n[nH]c3C)n1 (stereo partly drawn) [Example 107, 1-[(6-{3-Azabicyclo[3.1.0]hexan-3-yl}-2-methylpyridin-3-yl)methyl]-N-[(6R)-3-methyl-2H,4H,5H,6H-cyclopenta[c]pyrazol-6-yl]-1H-1,2,4-triazole-3-carboxamide]",7 nM
2,"Cc1nc(N2CC3(CC3)C2)ncc1Cn1cc(C(=O)N[C@@H]2CCc3c(C)n[nH]c32)cn1 [Example 30, 1-[(2-{5-Azaspiro[2.3]hexan-5-yl}-4-methyl-pyrimidin-5-yl)methyl]-N-[(6R)-3-methyl-1H,4H,5H,6H-cyclopenta[c]pyrazol-6-yl]-1H-pyrazole-4-carboxamide]",8 nM
3,"Cc1nc(N2CC3CC2C3)ccc1Cn1cc(C(=O)N[C@@H]2CCc3c2n[nH]c3C)cn1 [Example 49, 1-[(6-{2-Azabicyclo[2.1.1]hexan-2-yl}-2-methylpyridin-3-yl)methyl]-N-[(6R)-3-methyl-2H,4H,5H,6H-cyclopenta[c]pyrazol-6-yl]-1H-pyrazole-4-carboxamide]",42 nM
4,"Cc1nc(N2CC3CC(C2)O3)ccc1Cn1cc(C(=O)N[C@@H]2CCc3c2n[nH]c3C)cn1 [Example 64, N-[(6R)-3-Methyl-2H,4H,5H,6H-cyclopenta[c]pyrazol-6-yl]-1-[(2-methyl-6-{6-oxa-3-azabicyclo[3.1.1]heptan-3-yl}pyridin-3-yl)methyl]-1H-pyrazole-4-carboxamide]",32 nM
5,"Cc1nc(N2C[C@@H]3CC(F)(F)C[C@@H]3C2)ccc1Cn1cc(C(=O)N[C@@H]2CCc3c2n[nH]c3C)cn1 [Example 75, 1-({6-[(3aR,6aS)-5,5-Difluoro-octahydrocyclopenta[c]pyrrol-2-yl]-2-methylpyridin-3-yl}-methyl)-N-[(6R)-3-methyl-2H,4H,5H,6H-cyclopenta[c]pyrazol-6-yl]-1H-pyrazole-4-carboxamide]",19 nM
6,"Cc1nc(N2C[C@@H]3CNC(=O)[C@@H]3C2)ccc1Cn1cc(C(=O)N[C@@H]2CCc3c2n[nH]c3C)cn1 [Example 50, 1-({6-[(3aS,6aS)-4-Oxo-octahydropyrrolo[3,4-c]pyrrol-2-yl]-2-methylpyridin-3-yl}methyl)-N-[(6R)-3-methyl-2H,4H,5H,6H-cyclopenta[c]pyrazol-6-yl]-1H-pyrazole-4-carboxamide]",8 nM
7,"Cc1nc(N2CC3(C2)CC3(F)F)ccc1Cn1cc(C(=O)N[C@@H]2CCc3c2n[nH]c3C)cn1 [Example 51, 1-[(6-{1,1-Difluoro-5-azaspiro[2.3]hexan-5-yl}-2-methylpyridin-3-yl)methyl]-N-[(6R)-3-methyl-2H,4H,5H,6H-cyclopenta[c]pyrazol-6-yl]-1H-pyrazole-4-carboxamide]",25 nM
8,"Cc1nc(N2CC3CC3C2)ncc1Cn1cnc(C(=O)N[C@@H]2CCc3c2n[nH]c3C)c1 (stereo partly drawn) [Example 91, 1-[(2-{3-Azabicyclo[3.1.0]hexan-3-yl}-4-methyl-pyrimidin-5-yl)methyl]-N-[(6R)-3-methyl-2H,4H,5H,6H-cyclopenta[c]pyrazol-6-yl]-1H-imidazole-4-carboxamide]",3 nM
9,"COC1C2CC1CN(c1ccc(Cn3cc(C(=O)N[C@@H]4CCc5c4n[nH]c5C)cn3)c(C)n1)C2 (stereo partly drawn) [Example 53, 1-[(6-{6-methoxy-3-azabicyclo[3.1.1]heptan-3-yl}-2-methylpyridin-3-yl)methyI]-N-[(6R)-3-methyl-2H,4H,5H,6H-cyclopenta[c]pyrazol-6-yl]-1H-pyrazole-4-carboxamide]",9 nM
10,"Cc1nc(N2CC(C(C)C)C2)ccc1Cn1cc(C(=O)N[C@@H]2CCc3c2n[nH]c3C)cn1 [Example 70, N-[(6R)-3-Methyl-2H,4H,5H,6H-cyclopenta[c]pyrazol-6-yl]-1-({2-methyl-6-[3-(propan-2-yl)azetidin-1-yl]pyridin-3-yl}lmethyl)-1H-pyrazole-4-carboxamide]",13 nM
11,"Cc1nc(N2C[C@@H]3[C@@H](CO)[C@@H]3C2)ccc1Cn1cc(C(=O)N[C@@H]2CCc3c2n[nH]c3C)cn1 [Example 38, 1-({6-[(1R,5S,6R)-6-(Hydroxymethyl)-3-azabicyclo[3.1.0]hexan-3-yl]-2-methylpyridin-3-yl}methyl)-N-[(6R)-3-methyl-2H,4H,5H,6H-cyclopenta[c]pyrazol-6-yl]-1H-pyrazole-4-carboxamide]",26 nM
12,"Cc1nc(N2C[C@@H]3[C@@H](CF)[C@@H]3C2)ccc1Cn1cc(C(=O)N[C@@H]2CCc3c2n[nH]c3C)cn1 [Example 95, 1-({6-[(1R,5S,6R)-6-(Fluoromethyl)-3-azabicyclo[3.1.0]hexan-3-yl]-2-methylpyridin-3-yl}methyl)-N-[(6R)-3-methyl-2H,4H,5H,6H-cyclopenta[c]pyrazol-6-yl]-1H-pyrazole-4-carboxamide]",4 nM
13,"COCc1nn(Cc2cnc(N3CC4(CC4)C3)nc2C)cc1C(=O)N[C@@H]1CCc2c(C)n[nH]c21 [Example 31, 1-[(2-{5-Azaspiro[2.3]hexan-5-yl}-4-methyl-pyrimidin-5-yl)methyl]-3-(methoxymethyl)-N-[(6R)-3-methyl-1H,4H,5H,6H-cyclopenta[c]pyrazol-6-yl]-1H-pyrazole-4-carboxamide]",10 nM
14,"Cc1nc(N2CC3CC3C2)ccc1Cn1cc(C(=O)N[C@H]2CCc3c(C)n[nH]c32)cn1 (stereo partly drawn) [Example 2, 1-[(6-{3-Azabicyclo[3.1.0]hexan-3-yl}-2-methylpyridin-3-yl)methyl]-N-[(6S)-3-methyl-1H,4H,5H,6H-cyclopenta[c]pyrazol-6-yl]-1H-pyrazole-4-carboxamide]",32 nM

# The remaining compounds from weak to strong by IC50, led by results:
row,IC50,Compound
1,161 nM,"Cc1nc(N2CC(c3ccc(F)cc3)C2)ccc1Cn1cc(C(=O)N[C@@H]2CCc3c2n[nH]c3C)cn1 [Example 81, 1-({6-[3-(4-Fluorophenyl)azetidin-1-yl]-2-methylpyridin-3-yl}methyl)-N-[(6R)-3-methyl-2H,4H,5H,6H-cyclopenta[c]pyrazol-6-yl]-1H-pyrazole-4-carboxamide]"
2,137 nM,"Cc1nc(N2CC3(CCOC3)C2)ccc1Cn1cc(C(=O)N[C@@H]2CCc3c2n[nH]c3C)cn1 [Example 40, N-[(6R)-3-Methyl-2H,4H,5H,6H-cyclopenta[c]pyrazol-6-yl]-1-[(2-methyl-6-{6-oxa-2-azaspiro[3.4]octan-2-yl]pyridin-3-yl)methyl]-1H-pyrazole-4-carboxamide]"
3,85 nM,"Cc1nc(N2CC3(CCOCC3)C2)ccc1Cn1cc(C(=O)N[C@@H]2CCc3c2n[nH]c3C)cn1 [Example 63, N-[(6R)-3-Methyl-2H,4H,5H,6H-cyclopenta[c]pyrazol-6-yl]-1-[(2-methyl-6-{7-oxa-2-azaspiro[3.5]nonan-2-yl]pyridin-3-yl)methyl]-1H-pyrazole-4-carboxamide]"
4,41 nM,"Cc1nc(N2CC[C@](C)(O)C2)ccc1Cn1cc(C(=O)N[C@@H]2CCc3c2n[nH]c3C)cn1 [Example 83, 1-({6-[(3S)-3-Hydroxy-3-methylpyrrolidin-1-yl]-2-methylpyridin-3-yl}methyl)-N-[(6R)-3-methyl-2H,4H,5H,6H-cyclopenta[c]pyrazol-6-yl]-1H-pyrazole-4-carboxamide]"
5,38 nM,"Cc1nc(N2CC(F)(C(F)(F)F)C2)ccc1Cn1cc(C(=O)N[C@@H]2CCc3c2n[nH]c3C)cn1 [Example 74, 1-({6-[3-Fluoro-3-(trifluoromethyl)azetidin-1-yl]-2-methylpyridin-3-yl}methyl)-N-[(6R)-3-methyl-2H,4H,5H,6H-cyclopenta[c]pyrazol-6-yl]-1H-pyrazole-4-carboxamide]"
6,36 nM,"Cc1nc(N2C[C@H]3COC[C@H]3C2)ccc1Cn1cc(C(=O)N[C@@H]2CCc3c2n[nH]c3C)cn1 [Example 72, 1-({6-[(3aR,6aS)-Hexahydro-1H-furo[3,4-c]pyrrol-5-yl]-2-methylpyridin-3-yl}methyl)-N-[(6R)-3-methyl-2H,4H,5H,6H-cyclopenta[c]pyrazol-6-yl]-1H-pyrazole-4-carboxamide]"
7,17 nM,"Cc1nc(N2CC(C(F)(F)F)C2)ccc1Cn1cc(C(=O)N[C@@H]2CCc3c2n[nH]c3C)cn1 [Example 69, N-[(6R)-3-Methyl-2H,4H,5H,6H-cyclopenta[c]pyrazol-6-yl]-1-({2-methyl-6-[3-(trifluoromethyl)azetidin-1-yl]pyridin-3-yl}methyl)-1H-pyrazole-4-carboxamide]"
8,13 nM,"Cc1nc(N2CC(C)(C#N)C2)ccc1Cn1cc(C(=O)N[C@@H]2CCc3c2n[nH]c3C)cn1 [Example 41, 1-{[6-(3-Cyano-3-methylazetidin-1-yl)-2-methylpyridin-3-yl]methyl}-N-[(6R)-3-methyl-2H,4H,5H,6H-cyclopenta[c]pyrazol-6-yl]-1H-pyrazole-4-carboxamide]"
9,4 nM,"COCc1nn(Cc2cnc(N3CC4CC4C3)nc2C)cc1C(=O)N[C@@H]1CCc2c(C)n[nH]c21 (stereo partly drawn) [Example 28, 1-[(2-{3-Azabicyclo[3.1.0]hexan-3-yl}-4-methyl-pyrimidin-5-yl)methyl]-3-(methoxymethyl)-N-[(6R)-3-methyl-1H,4H,5H,6H-cyclopenta[c]pyrazol-6-yl]-1H-pyrazole-4-carboxamide]"
10,3 nM,"Cc1nc(N2CC3C(C2)C3(F)F)ncc1Cn1cc(C(=O)N[C@@H]2CCc3c(C)n[nH]c32)c(C)n1 (stereo partly drawn) [Example 27, 1-[(2-{6,6-Difluoro-3-azabicyclo[3.1.0]hexan-3-yl}-4-methylpyrimidin-5-yl)methyl]-3-methyl-N-[(6R)-3-methyl-1H,4H,5H,6H-cyclopenta[c]pyrazol-6-yl]-1H-pyrazole-4-carboxamide]"
11,2 nM,"Cc1nc(N2CC3CC3C2)ccc1Cn1cc(C(=O)N[C@@H]2CCc3c(C)n[nH]c32)c(-c2cnn(C)c2)n1 (stereo partly drawn) [Example 32, 1-[(6-{3-Azabicyclo[3.1.0]hexan-3-yl}-2-methyl-pyridin-3-yl)methyl]-1′-methyl-N-[(6R)-3-methyl-1H,4H,5H,6H-cyclopenta[c]pyrazol-6-yl]-1H,1′H-[3,4′-bipyrazole]-4-carboxamide]"
12,2 nM,"Cc1nc(N2CC3(CC3)C2)ccc1Cn1cc(C(=O)N[C@@H]2CCc3c(C)n[nH]c32)c(C)n1 [Example 24, 1-[(6-{5-Azaspiro[2.3]hexan-5-yl}-2-methylpyridin-3-yl)methyl]-3-methyl-N-[(6R)-3-methyl1H,4H,5H,6H-cyclopenta[c]pyrazol-6-yl]-1H-pyrazole-4-carboxamide]"
